According to EP0908457B1, “3-(1,2-benzisothiazol- and isoxazol-5-Y1)-2,4(1H,3H)-pyrimidinedione or thione and 3-(1,2-benzisothiazol- and isoxazol-5-y1)-4(3H)-pyrimidinone or thione herbicidal agents” (BASF AKTIENGESELLSCHAFT, priority 1997, dated 1999):

Tests used:
[1] = system: Echinochloa oryzoides (Ard.) Fritsch.; test: Preemergence weed control under flooded paddy conditions, ECHORC (Watergrass (Calif.)); format: in vivo; details: preemergence, flooded paddy; note: meaning of each grade not given here
[2] = system: Cyperus iria; test: Preemergence weed control under flooded paddy conditions, CYPIR (Rice Flatsedge); format: in vivo; details: preemergence, flooded paddy; note: meaning of each grade not given here
[3] = system: Cyperus serotinus, Rottb.; test: Preemergence weed control under flooded paddy conditions, CYPSE (Flatsedge); format: in vivo; details: preemergence; note: meaning of each grade not given here
[4] = system: Monochoria vaginalis, Presl.; test: Preemergence weed control under flooded paddy conditions, MOOVA (Monochoria); format: in vivo; details: preemergence, flooded paddy; note: meaning of each grade not given here
[5] = system: Sagittaria pygmaea, L.; test: Preemergence weed control under flooded paddy conditions, SAGPY (Arrowhead (Pygmaea)); format: in vivo; details: preemergence, flooded paddy; note: meaning of each grade not given here
[6] = system: Oryza sativa, (L.) Tebonnet; test: Rice tolerance to post-transplant applications under flooded paddy conditions (Example 187), ORYSAT (Rice, Tebonnet); details: for herbicidal effect rating ORYSAT: rated 3-4 weeks after treatment; for herbicidal effect rating, ORYSAT (rice tolerance): rated three to four weeks after treatment; for herbicidal effect rating ORYSAT: meaning of each grade not given here
[7] = Rate 0.0620 kg/ha, rated 3-4 weeks after treatment
[8] = Rate 0.1250 kg/ha, rated 3-4 weeks after treatment
[9] = Rate 0.2500 kg/ha, rated 3-4 weeks after treatment
[10] = Rate 0.5000 kg/ha, rated 3-4 weeks after treatment
[11] = Rate 0.0320 kg/ha, rated 3-4 weeks after treatment
[12] = 0.0313 kg/ha, rated three to four weeks after treatment
[13] = 0.0625 kg/ha, rated three to four weeks after treatment
[14] = 0.1250 kg/ha, rated three to four weeks after treatment
[15] = 0.2500 kg/ha, rated three to four weeks after treatment

CCOC(=O)c1ccc(NC(=O)C(C)Oc2ccc(C)cc2-c2nsc3ccc(-n4c(=O)cc(C(F)(F)F)n(C)c4=O)cc23)cc1 (stereo not shown) [Example 541, Benzoic acid, p-{2-{{2-{5-[3,6-dihydro-3-methyl-2,6-dioxo-4-(trifluoromethyl)-1(2H)-pyrimidinyl]-1,2-benzisothiazol-3-yl}-p-tolyl}oxy}propionamido}-, ethyl ester]
6.0: herbicidal effect rating, ECHORC [1, 10] | herbicidal effect rating, CYPIR [2, 9]
2.0: herbicidal effect rating ORYSAT ([6]; Rate 0.5000 kg/ha)
4.0: herbicidal effect rating, ECHORC [1, 9] | herbicidal effect rating, CYPIR [2, 8]
3.0: herbicidal effect rating, CYPIR [2, 7]
9.0: herbicidal effect rating, CYPIR [2, 10] | herbicidal effect rating, MOOVA [4, 7] | herbicidal effect rating, MOOVA [4, 8] | herbicidal effect rating, MOOVA [4, 9] | herbicidal effect rating, MOOVA [4, 10]
0.0: herbicidal effect rating, ECHORC [1, 7] | herbicidal effect rating, ECHORC [1, 8] | herbicidal effect rating, CYPSE [3, 7] | herbicidal effect rating, CYPSE [3, 8] | herbicidal effect rating, CYPSE [3, 9] | herbicidal effect rating, CYPSE [3, 10] | herbicidal effect rating, SAGPY [5, 7] | herbicidal effect rating, SAGPY [5, 8] | herbicidal effect rating, SAGPY [5, 9] | herbicidal effect rating, SAGPY [5, 10] | herbicidal effect rating ORYSAT ([6]; Rate 0.0620 kg/ha) | herbicidal effect rating ORYSAT ([6]; Rate 0.1250 kg/ha) | herbicidal effect rating ORYSAT ([6]; Rate 0.2500 kg/ha)

C#CC(C)OC(=O)C(C)(C)Oc1ccc(C)cc1-c1nsc2ccc(-n3c(=O)cc(C(F)(F)F)n(C)c3=O)cc12 (stereo not shown) [Example 531, Propionic acid, 2-{{2-{5-[3,6-dihydro-3-methyl-2,6-dioxo-4-(trifluoromethyl)-1(2H)-pyrimidinyl]-1,2-benzisothiazol-3-yl}-p-tolyl}oxy}-2-methyl-, 1-methyl-2-propynyl ester]
4.0: herbicidal effect rating, CYPIR [2, 8] | herbicidal effect rating, CYPIR [2, 9]
9.0: herbicidal effect rating, ECHORC [1, 11] | herbicidal effect rating, ECHORC [1, 7] | herbicidal effect rating, ECHORC [1, 8] | herbicidal effect rating, ECHORC [1, 9] | herbicidal effect rating, MOOVA [4, 11] | herbicidal effect rating, MOOVA [4, 7] | herbicidal effect rating, MOOVA [4, 8] | herbicidal effect rating, MOOVA [4, 9] | herbicidal effect rating ORYSAT ([6]; Rate 0.2500 kg/ha)
3.0: herbicidal effect rating, CYPSE [3, 8] | herbicidal effect rating, CYPSE [3, 9] | herbicidal effect rating, SAGPY [5, 8] | herbicidal effect rating, SAGPY [5, 9] | herbicidal effect rating ORYSAT ([6]; Rate 0.1250 kg/ha)
0.0: herbicidal effect rating, CYPIR [2, 11] | herbicidal effect rating, CYPIR [2, 7] | herbicidal effect rating, CYPSE [3, 11] | herbicidal effect rating, CYPSE [3, 7] | herbicidal effect rating, SAGPY [5, 11] | herbicidal effect rating, SAGPY [5, 7] | herbicidal effect rating ORYSAT ([6]; Rate 0.0320 kg/ha) | herbicidal effect rating ORYSAT ([6]; Rate 0.0620 kg/ha)

C=CCOC(=O)/C=C/c1nsc2ccc(-n3c(=O)cc(C(F)(F)F)n(C)c3=O)cc12 [Example 566, 1,2-Benzisothiazole-3-acrylic acid, 5-[3,6-dihydro-3-methyl-2,6-dioxo-4-(trifluoromethyl)-1(2H)-pyrimidinyl]-, allyl ester, (E)-]
9.0: herbicidal effect rating, CYPIR [2, 9] | herbicidal effect rating, MOOVA [4, 11] | herbicidal effect rating, MOOVA [4, 7] | herbicidal effect rating, MOOVA [4, 8] | herbicidal effect rating, MOOVA [4, 9] | herbicidal effect rating, SAGPY [5, 9]
3.0: herbicidal effect rating, ECHORC [1, 11] | herbicidal effect rating, ECHORC [1, 7] | herbicidal effect rating, ECHORC [1, 8] | herbicidal effect rating, CYPSE [3, 9] | herbicidal effect rating ORYSAT ([6]; Rate 0.0620 kg/ha)
5.0: herbicidal effect rating ORYSAT ([6]; Rate 0.1250 kg/ha)
6.0: herbicidal effect rating, ECHORC [1, 9] | herbicidal effect rating ORYSAT ([6]; Rate 0.2500 kg/ha)
0.0: herbicidal effect rating, CYPIR [2, 11] | herbicidal effect rating, CYPIR [2, 7] | herbicidal effect rating, CYPIR [2, 8] | herbicidal effect rating, CYPSE [3, 11] | herbicidal effect rating, CYPSE [3, 7] | herbicidal effect rating, CYPSE [3, 8] | herbicidal effect rating, SAGPY [5, 11] | herbicidal effect rating, SAGPY [5, 7] | herbicidal effect rating, SAGPY [5, 8]

Cc1noc2cc(F)c(-n3c(=O)cc(C(F)(F)F)n(C)c3=O)cc12 [Example 23, 3-(6-Fluoro-3-methyl-1,2-benzisoxazol-5-yl)-1-methyl-6-(trifluoromethyl)-2,4(1H,3H)-pyrimidinedione]
7.0: herbicidal effect rating, ECHORC [1, 13] | herbicidal effect rating, CYPIR [2, 12] | herbicidal effect rating, CYPSE [3, 13]
8.5: herbicidal effect rating, ECHORC [1, 14] | herbicidal effect rating, ORYSAT (rice tolerance) ([6]; 0.2500 kg/ha)
6.5: herbicidal effect rating, ORYSAT (rice tolerance) ([6]; 0.0625 kg/ha)
4.5: herbicidal effect rating, ECHORC [1, 12]
6.0: herbicidal effect rating, SAGPY [5, 13]
9.0: herbicidal effect rating, ECHORC [1, 15] | herbicidal effect rating, CYPIR [2, 13] | herbicidal effect rating, CYPIR [2, 14] | herbicidal effect rating, CYPIR [2, 15] | herbicidal effect rating, CYPSE [3, 15] | herbicidal effect rating, MOOVA [4, 12] | herbicidal effect rating, MOOVA [4, 13] | herbicidal effect rating, MOOVA [4, 14] | herbicidal effect rating, MOOVA [4, 15] | herbicidal effect rating, SAGPY [5, 14] | herbicidal effect rating, SAGPY [5, 15]
8.0: herbicidal effect rating, CYPSE [3, 14] | herbicidal effect rating, ORYSAT (rice tolerance) ([6]; 0.1250 kg/ha)
4.0: herbicidal effect rating, CYPSE [3, 12] | herbicidal effect rating, SAGPY [5, 12]
5.5: herbicidal effect rating, ORYSAT (rice tolerance) ([6]; 0.0313 kg/ha)

COCCCOCCCOC(=O)COc1ccc(C)cc1-c1nsc2ccc(-n3c(=O)cc(C(F)(F)F)n(C)c3=O)cc12 [Example 536, Acetic acid, {{2-{5-[3,6-dihydro-3-methyl-2,6-dioxo-4-(trifluoromethyl)-1(2H)-pyrimidinyl]-1,2-benzisothiazol-3-yl}-p-tolyl}oxy}-, 3-(3-methoxypropoxy)propyl ester]
4.0: herbicidal effect rating, ECHORC [1, 7] | herbicidal effect rating, CYPIR [2, 9] | herbicidal effect rating ORYSAT ([6]; Rate 0.2500 kg/ha)
9.0: herbicidal effect rating, ECHORC [1, 9] | herbicidal effect rating, MOOVA [4, 11] | herbicidal effect rating, MOOVA [4, 7] | herbicidal effect rating, MOOVA [4, 8] | herbicidal effect rating, MOOVA [4, 9]
5.0: herbicidal effect rating, ECHORC [1, 8]
0.0: herbicidal effect rating, CYPIR [2, 11] | herbicidal effect rating, CYPIR [2, 7] | herbicidal effect rating, CYPIR [2, 8] | herbicidal effect rating, CYPSE [3, 11] | herbicidal effect rating, CYPSE [3, 7] | herbicidal effect rating, CYPSE [3, 8] | herbicidal effect rating, CYPSE [3, 9] | herbicidal effect rating, SAGPY [5, 11] | herbicidal effect rating, SAGPY [5, 7] | herbicidal effect rating, SAGPY [5, 8] | herbicidal effect rating, SAGPY [5, 9] | herbicidal effect rating ORYSAT ([6]; Rate 0.0320 kg/ha) | herbicidal effect rating ORYSAT ([6]; Rate 0.0620 kg/ha)
1.0: herbicidal effect rating ORYSAT ([6]; Rate 0.1250 kg/ha)
3.0: herbicidal effect rating, ECHORC [1, 11]

COc1ccc(C(C)C)cc1-c1nsc2ccc(-n3c(=O)cc(C(F)(F)F)n(C)c3=O)cc12 [Example 46, 3-[3-(5-Isopropyl-2-methoxyphenyl)-1,2-benzisothiazol-5-yl]-1-methyl-6-(trifluoromethyl)-2,4(1H,3H)-pyrimidinedione]
9.0: herbicidal effect rating, ECHORC [1, 12] | herbicidal effect rating, ECHORC [1, 13] | herbicidal effect rating, ECHORC [1, 14] | herbicidal effect rating, ECHORC [1, 15] | herbicidal effect rating, CYPIR [2, 14] | herbicidal effect rating, CYPIR [2, 15] | herbicidal effect rating, MOOVA [4, 12] | herbicidal effect rating, MOOVA [4, 13] | herbicidal effect rating, MOOVA [4, 14] | herbicidal effect rating, MOOVA [4, 15]
1.0: herbicidal effect rating, ORYSAT (rice tolerance) ([6]; 0.0313 kg/ha) | herbicidal effect rating, ORYSAT (rice tolerance) ([6]; 0.0625 kg/ha)
3.0: herbicidal effect rating, ORYSAT (rice tolerance) ([6]; 0.2500 kg/ha)
7.0: herbicidal effect rating, SAGPY [5, 15]
6.0: herbicidal effect rating, CYPIR [2, 13]
2.0: herbicidal effect rating, CYPIR [2, 12] | herbicidal effect rating, CYPSE [3, 15] | herbicidal effect rating, SAGPY [5, 14] | herbicidal effect rating, ORYSAT (rice tolerance) ([6]; 0.1250 kg/ha)
0.0: herbicidal effect rating, CYPSE [3, 12] | herbicidal effect rating, CYPSE [3, 13] | herbicidal effect rating, SAGPY [5, 12] | herbicidal effect rating, SAGPY [5, 13]
